Holding throughout (type): functional
Details in all cases: read-out: IZ

For experiment [1], the system named is Staphylococcus aureus. Kind of experiment: Antimicrobial activity against Staphylococcus aureus ATCC 29213 at 200 ug/disk by standard disk diffusion method. In general terms: A growth-free zone around the sample is the usual read-out of agar diffusion tests.
Experiment [2] has as its system Bacillus subtilis. Description: Antimicrobial activity against Bacillus subtilis ATCC 6051 at 200 ug/disk by standard disk diffusion method.
The test system of experiment [3] is Candida albicans. Description: Antimicrobial activity against Candida albicans ATCC 10231 at 200 ug/disk by standard disk diffusion method.

The text below walks through data of ChEMBL document CHEMBL1150869, “Bombardolides: new antifungal and antibacterial gamma-lactones from the coprophilous fungus Bombardioidea anartia” (2001).

Turning to `CC/C=C1C=C(/C=C/C(=O)O)C(=O)O/1`, the zone of inhibition at 200 µg/disc is 18 mm in experiment [1] and 26 mm in experiment [2].

With `CCCCC(O)c1cccc(O)c1` (centres undefined), the zone of inhibition at 200 µg/disc in experiment [1] was found to be 19 mm; in experiment [2], 12 mm.

Regarding `CC/C=C1C=C(/C=C/CO)C(=O)O/1`, the zone of inhibition at 200 µg/disc in experiment [1] worked out at 14 mm; in experiment [3], 35 mm; in experiment [2] it was 19 mm.

Turning to `CC/C=C1/C=C(CCCO)C(=O)O1` [(E/Z)-BOMBARDOLIDE B], in experiment [2], the zone of inhibition at 200 µg/disc came to 11 mm.

Take `CCCC1C=C(/C=C/CO)C(=O)O1` (centres undefined) [BOMBARDOLIDE D]: the zone of inhibition at 200 µg/disc in experiment [3] came out at 20 mm.
